{"source": "patent US20030111088A1", "about": "“Device and method for treating combination dependencies” (Addiction Therapies, Inc., priority 2001, published 2003)", "key": {"[1]": {"conditions": "in vivo; cited from earlier work"}, "[2]": {"conditions": "several clinical studies; cited from earlier work"}, "[3]": {"conditions": "for plasma levels of nicotine by dose group: single and repeated dose parts", "protocol": "The chamber 10 is a plastic drinking straw. The retainer 18 is a filter at the first end 12 of the straw. The user places the first end 12 of the device in a glass of apple juice and applies oral suction to the second end 14 of the device, such that the juice and nicotine 16 are delivered into the user's mouth.\nThe nicotine 16 in the device is in the form of coated sugar spheres of nicotine bitartrate having a diameter of approximately 500 micrometers. The nicotine spheres are prepared by spraying nicotine bitartrate dihydrate with a binder onto sugar spheres and applying a film coating. Using a Wurster processing unit, particles are suspended in air using a controlled airflow system and a coating suspension is added at a controlled rate via a pneumatically atomized nozzle. As atomized droplets of the coating solution contact the particles, they spread and coalesce on the particle surface. Excess moisture from the applied liquid evaporates in the apparatus, leaving a coated dry substance. Mixing of the coating suspension occurs throughout the manufacturing process to ensure uniformity of the suspension.\n(§1) On day one, following overnight abstinence from smoking, healthy adult smokers who wish to give up smoking receive a single dose of nicotine or placebo. Smokers are assigned to each dosage group in a double blind, randomized manner, as is well known in the art. The following data are collected before dosing, every thirty minutes for the first two hours after dosing, and every hour for the following six hours: plasma levels of nicotine and cotinine, vital signs, adverse events, and patient's assessment of cigarette cravings. Baseline and endpoint clinical chemistry, hematology, urinalysis, and ECG are also monitored.\n(§2) There were 6 subjects per treatment group. […] Apple juice was used as the beverage for delivering nicotine from the straw-like device."}, "[4]": {"from_the_text": "as §1\nOn day eight, again following overnight abstinence from smoking, the same subjects receive the same dose of nicotine or placebo. The dose is repeated periodically throughout the day. The following data are collected as described above before the first dosing and one hour after each dose is administered: plasma levels of nicotine and cotinine, vital signs, adverse events, and patient's assessment of cigarette cravings. Baseline and endpoint clinical chemistry, hematology, urinalysis, and ECG are also monitored. The data are used to evaluate the safety and pharmacokinetics of nicotine delivery by the smoking cessation device.\nas §2"}}, "note": "Read-outs that look alike come from different tables or passages of the source.", "data": [{"smiles": "Oc1ccc2c3c1O[C@H]1[C@H](O)CC[C@@]4(O)[C@@H](C2)N(CC2CC2)CC[C@]314", "note": "[6β-naltrexol]", "values": [{"measurement": "plasma half-life", "setting": "[1]", "result": 12, "unit": "h"}]}, {"smiles": "O=C1CC[C@@]2(O)[C@H]3Cc4ccc(O)c5c4[C@@]2(CCN3CC2CC2)[C@H]1O5", "note": "[Naltrexone, naltrexone]", "values": [{"measurement": "effects on smoking cessation", "setting": "[2]", "result": "only small effects"}]}, {"smiles": "CN1CCCC1c1cccnc1", "note": "(centres unmarked) [nicotine]", "values": [{"measurement": "plasma levels of nicotine by dose group", "setting": "[3]; 4 mg dose group", "result": "lowest plasma levels"}, {"measurement": "plasma levels of nicotine by dose group", "setting": "[3]; 8 mg and 12 mg dose groups", "result": "higher plasma levels"}, {"measurement": "nicotine levels in most subjects", "setting": "[3]; 15 minutes after dosing", "result": "already increased"}, {"measurement": "plasma nicotine on repeated dosing", "setting": "[3]; repeated dosing every 1.5 hours, 10.5 hour sampling period", "result": "continuous increases"}, {"measurement": "plasma levels of nicotine versus marketed nicotine replacement products", "setting": "[3]; single dose 4 mg, 8 mg or 12 mg, straw-like device, FIG. 3", "result": "comparable to or greater than"}, {"measurement": "kinetics compared with nicotine gum", "setting": "[3]; straw-like device, FIG. 4", "result": "very similar"}, {"measurement": "tolerability", "setting": "[4]; 4 mg and 8 mg doses in straw-like delivery device", "result": "well tolerated"}, {"measurement": "nausea and vomiting", "setting": "[4]; 12 mg dose versus 4 mg and 8 mg", "result": "seen only with the 12 mg dose"}, {"measurement": "adverse events observed", "setting": "[4]; all nicotine doses", "result": "lightheadedness, nausea, and vomiting"}, {"measurement": "clinical chemistry, hematology, urinalysis or ECG values", "setting": "[4]; human, in vivo", "result": "no clinically significant changes"}, {"measurement": "vital sign measurements", "setting": "[4]; human, in vivo", "result": "Occasional increases"}, {"measurement": "craving for cigarettes", "setting": "[4]; over the repeat dosing session, all subjects receiving nicotine", "result": "decreased"}]}]}
